This test deals with PAF-induced bronchoconstriction. The test can be described thus: Action against PAF-induced bronchoconstriction in guinea pigs (Konzett-R6essler method). The class given is in vivo, guinea pig (male Hartley). To be noted: guinea pig; 10 mg/Kg orally, 1 hour before PAF (1 μg/Kg, i.v.); recorded for 15 minutes. As for the experimental part:
(Action against PAF-induced bronchoconstriction in guinea pigs)
Male Hartley guinea pigs (body weight 500 g) were used. The bronchoconstriction reaction in the guinea pig which has intravenously received PAF (1 μg/kg) was measured by the Konzett-R6essler method. The trachea of the guinea pig with its back fixed was incised under anesthesia condition with urethane (intraperitoneal injection, 1.50 g/Kg) and connected with an artificial respirator via a cannula. The branch of the tracheal cannula was connected with a transducer (7020 type, Ugobasile). Air was sent to the trachea at the volume of 3-7 ml/stroke, at the stroke of 70 strokes/min. at load pressure of 10cm H2 O to lung and overflowed air volume was recorded with Rectegraph (Recte-Hori-8s, Sanei Sokuki) via the transducer. After the guinea pig was treated with galamine (1 mg/Kg, i.v.), PAF (1 μg/Kg) dissolved in a physiological saline solution was administered to the guinea pig via a jugular venous cannula and the bronchoconstriction reaction induced thereby was recorded for 15 minutes. The drug (10 mg/Kg) suspended in a 5% gum arabic solution was administered orally 1 hour before the injection of PAF.
Action against PAF-induced bronchoconstriction of guinea pigs

`Cc1cc2nccn2nc1CCC(C)(C)CCS(N)(=O)=O` [Example 4, 6-(3,3-dimethyl-5-sulfamoyl-1-pentyl)-7-methylimidazo[1,2-b]pyridazine]: the “Inhibition (%) of PAF-induced bronchoconstriction” value came out at 86%.

The values above are taken from patent US5369104A, “Pyridazine compounds, their production and use” (Takeda Chemical Industries, Ltd., priority 1991, dated 1994).
